Source: PMC8851515 (Proceedings of the National Academy of Sciences of the …, 2022)

Biological target: T1, hDHHC20 (Homo sapiens, UniProt Q5W0Z9)
T1 sequence (Q5W0Z9 1-365): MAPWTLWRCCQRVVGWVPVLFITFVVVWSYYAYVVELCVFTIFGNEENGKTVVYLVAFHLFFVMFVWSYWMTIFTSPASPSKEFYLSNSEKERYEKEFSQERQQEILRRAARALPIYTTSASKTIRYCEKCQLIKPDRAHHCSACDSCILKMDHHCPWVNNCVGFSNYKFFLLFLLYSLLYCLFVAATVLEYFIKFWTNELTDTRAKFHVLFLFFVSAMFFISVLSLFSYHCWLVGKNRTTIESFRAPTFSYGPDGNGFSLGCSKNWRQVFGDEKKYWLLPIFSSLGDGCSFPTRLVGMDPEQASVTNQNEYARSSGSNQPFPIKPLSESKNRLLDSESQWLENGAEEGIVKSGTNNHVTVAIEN
Test: coupled-enzyme PAT activity inhibition assay
Format: biochemical

CCCCCCCCCCCCCCC(Br)C(=O)O (stereo not shown) [2-bromopalmitic acid]
IC50: 4.5 µM
